Tests used:
NarK [1] = target: T1, NarK (Escherichia coli, UniProt P10903); test: X-ray crystal structure (LCP, SIRAS and molecular replacement); settings: occluded state (2.4 Å, pH 5.8, 100 mM NH4NO3) and inward-open state (2.4 Å, pH 6.0); central substrate-binding site
T1 construct: full-length gene in pET-modified vector; GFP-His8 tag cleaved by TEV protease; expressed in E. coli C41(DE3) delta-acrB; DDM/CHS purified; LCP crystals or soybean lipid proteoliposomes
T1 sequence (P10903 1-463): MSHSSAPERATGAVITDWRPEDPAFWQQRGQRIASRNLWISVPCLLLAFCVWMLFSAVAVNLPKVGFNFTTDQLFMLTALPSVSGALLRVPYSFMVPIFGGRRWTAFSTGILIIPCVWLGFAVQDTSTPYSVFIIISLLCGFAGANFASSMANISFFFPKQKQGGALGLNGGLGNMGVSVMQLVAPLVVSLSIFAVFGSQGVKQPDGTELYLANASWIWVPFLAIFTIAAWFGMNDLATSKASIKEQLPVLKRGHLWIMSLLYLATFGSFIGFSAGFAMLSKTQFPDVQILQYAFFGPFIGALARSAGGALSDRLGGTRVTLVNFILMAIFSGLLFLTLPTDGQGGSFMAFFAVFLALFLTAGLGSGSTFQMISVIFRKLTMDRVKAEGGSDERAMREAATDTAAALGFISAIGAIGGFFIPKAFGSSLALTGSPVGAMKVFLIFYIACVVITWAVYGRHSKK

NarK [2] = target: T1, NarK; test: nitrite uptake into NarK proteoliposomes, DAF-FM fluorescence; type: biochemical; settings: 50 mM NaNO2 outside, 50 mM NaNO3 inside as counter-anion; pH 7.0; membrane potential; 37 °C

SMILES	X-ray crystal structure (LCP, SIRAS and molecular replacement) (NarK [1])	nitrite uptake into NarK proteoliposomes, DAF-FM fluorescence (NarK [2])
O=[N+]([O-])O [nitrate]	4U4T (nitrate-bound inward-open state) and 4U4W (nitrate-bound occluded state)	–
O=NO [nitrite]	–	We observed the uptake of nitrite when nitrate was present inside the liposomes

Source: PMC4432589, “Structural basis for dynamic mechanism of nitrate/nitrite antiport by NarK” (Nature Communications, 2015)
